“Also recorded” adds a separate entry of the source.
System: hippocampal tubulin dimers and microtubule subsets
Experiment: 2H label incorporation into hippocampal tubulin dimers and microtubule subsets during CFC (GC/MS)
Assay type: in vivo, mouse
Settings: conditioned mice, hippocampus
From the text: FIG. 10 depicts microtubule/tubulin exchange during hippocampus-dependent contextual memory. (A) Protocol for measurement of microtubule/tubulin exchange during contextual fear conditioning (CFC). Tubulin dimers and microtubules subsets were labeled to plateau through continuous ^2H2O labeling, starting one day before CFC training. Labeling was continued throughout CFC training (Day 2) and the contextual conditioning test until mice were euthanized (Day 3). Vehicle or nocodazole treated-mice were injected 4 hours before CFC training, consisting of three pairings of conditioned and unconditioned stimuli inside an observation chamber, as described in Example 7 below. (B) CFC experiments were conducted in groups of naïve, vehicle- (50% cyclodextrin) and nocodazole-treated (0.2 mg/kg) mice (mean±SD, n=8 per each group), respectively. […] (C-E) ^2H label incorporation into hippocampal tubulin dimers and microtubule subsets was compared at sacrifice in the indicated experimental groups. Microtubule subpopulations were fractionated as described below, and the percentage of newly synthesized tubulin was quantified by GC/MS (mean±SD, n=3). (C) and (D) In vehicle-CFC trained mice, the increased freezing response corresponded with an increase in ^2H labeling of MAP2- and CS-associated MTs, compared to naïve control animals (§p<0.01 and §§p<0.05; two-way ANOVA). […] In (C-E), bars represent % new tubulin (mean±SD, n=3).
Tubulin was purified using minor modifications of protocols described previously (Fanara, P., Oback, B., Ashman, K., Podtelejnikov, A., Brandt, R. Identification of MINUS, a small polypeptide that functions as a microtubule nucleation suppressor. EMBO J. 18, 565-577 (1999); Fanara, P. et al. In vivo measurement of microtubule dynamics using stable isotope labeling with heavy water. Effect of taxanes. J. Biol. Chem. 279, 49940-49947 (2004). Briefly, cultured neurons were gently scraped off culture plates, washed in phosphate-buffered saline (PBS), and homogenized in microtubule-stabilizing buffer. For purification ex vivo, mice were anesthetized with isoflurane and euthanized by cervical dislocation. Brains were rapidly removed and washed in microtubule-stabilizing buffer (MSB); hippocampi were dissected and gently homogenized in MSB. […] The relative abundance of tubulin in each preparation (Tubulin dimers and TAU5-bound, MAP2-bound, and unbound microtubule fractions) was quantified by Western blot, and tubulin from these fractions was further purified by ion exchange and size exclusion chromatography, as previously described (Fanara, P. et al. In vivo measurement of microtubule dynamics using stable isotope labeling with heavy water. Effect of taxanes. J. Biol. Chem. 279, 49940-49947 (2004)). […]

In the case of COC(=O)Nc1nc2ccc(C(=O)c3cccs3)cc2[nH]1 [nocodazole], the “label incorporation into tau-associated microtubules” value (nocodazole 0.2 mg/kg vs basal levels in naïve and conditioned animals) is reported as “reduced; also recorded: significant disassembly”, the “2H incorporation into free tubulin dimers” value (nocodazole 0.2 mg/kg vs vehicle-treated controls) is reported as “increase” and the “label incorporation into MAP2-associated microtubules” value (nocodazole 0.2 mg/kg vs vehicle) is reported as “reversed; also recorded: significant disassembly”. For the same compound, the “reduction of label incorporation into CS microtubules” value (nocodazole 0.2 mg/kg) was “not statistically significant”.

— patent US20090197279A1, “MICROTUBULE SYNTHESIS AS A BIOMARKER” (KINEMED, INC., priority 2005, published 2009)
